In patent US20250026778A1 (TIUMBIO CO., LTD., priority 2021, published 2025):
Read-outs that look alike come from different tables or passages of the source.

Target: T1, his-galectin-3 (Homo sapiens, UniProt P17931)
T1 construct: purchased Abcam
Test: TR-FRET assay (in vitro galectin-3 binding inhibitory activity test)
Conditions: compound at 20 μM, 60 nM his-galectin-3, 15 nM biotin-ASF
Description: TR-FRET Assay (In Vitro Galectin-3 Binding Inhibitory Activity Test)
TR-FRET assay was performed in ½ Area Plate-96 (PerkinElmer). Final concentrations of components in the assay were 60 nM his-galectin-3 (Abcam), 15 nM biotin-ASF (Axxora), 2 nM Mab anti-6×His Tb (Cisbio) and 20 nM SA-d2 (Cisbio). The reaction was performed in a buffer containing 25 mM HEPES, 100 mM NaCl, 0.005% Tween 20 and 0.05% BSA. 20 μL his-galectin-3 and 1 μL compound were mixed first, and then 20 μL biotin-ASF, 5 μL anti-His Tb and 5 μL SA-d2 were added in order. After incubation for at least 3.5 hours at RT, TR-FRET signals were measured at 615/665 nm […] wavelengths using a VICTOR Nivo (PerkinElmer). The positive control used DMSO instead of the compound, and the negative control excluded ASF-biotin. N-acetyl-D-lactosamine (LacNAc), an endogenous ligand unit of galectin-3, was evaluated together as a control substance to compare galectin-3 binding inhibitory activity.

[1] = Table 1, read-out: % Inhibitory activity (at 20 μM)
[2] = Table 2, read-out: % Inhibitory activity (at 20 μM)
[3] = read-out: % Inhibitory activity (at 20 μM), Table 1

T1 sequence (P17931 whole entry): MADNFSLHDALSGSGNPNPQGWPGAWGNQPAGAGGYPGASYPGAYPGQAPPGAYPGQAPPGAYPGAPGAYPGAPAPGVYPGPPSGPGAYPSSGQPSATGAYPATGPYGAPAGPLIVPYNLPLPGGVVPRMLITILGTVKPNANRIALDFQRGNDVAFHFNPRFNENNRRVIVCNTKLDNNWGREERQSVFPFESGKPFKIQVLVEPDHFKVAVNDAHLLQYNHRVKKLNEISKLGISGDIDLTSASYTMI

With COc1ccc2c(c1)CCC1(O2)O[C@H](CO)[C@H](O)[C@H](n2cc(-c3cc(F)c(F)c(F)c3)nn2)[C@H]1O (single isomer, unassigned) [Compound A10, (3′R,4'S,5′R,6′R)-6′-(hydroxymethyl)-6-methoxy-4′-(4-(3,4,5-trifluorophenyl)-1H-1,2,3-triazol-1-yl)-3′,4′,5′,6′-tetrahydrospiro[chromane-2,2′-pyran]-3′,5′-diol] the “% Inhibitory activity (at 20 μM)” value (Table 1) was “D (inhibition rate was less than 25%)”.
Work on COc1ccc2c(c1)CCC1(O2)O[C@H](CO)[C@H](O)[C@H](n2cc(-c3cc(F)c(F)c(F)c3)nn2)[C@H]1O (single isomer, unassigned) [Compound A11, (3′R,4'S,5′R,6′R)-6′-(hydroxymethyl)-6-methoxy-4′-(4-(3,4,5-trifluorophenyl)-1H-1,2,3-triazol-1-yl)-3′,4′,5′,6′-tetrahydrospiro[chromane-2,2′-pyran]-3′,5′-diol] yielded an inhibition at 20 µM [1] of 25 to 50%.
For O=C1CCCC2(N1)O[C@H](CO)[C@H](O)[C@H](n1cc(-c3cc(F)c(F)c(F)c3)nn1)[C@H]2O (single isomer, unassigned) [Compound A89], the inhibition at 20 µM [1] was < 25%.
In the case of CC(C(=O)N[C@@H]1CCO[C@]12O[C@H](CO)[C@H](O)[C@H](n1cc(-c3cc(F)c(F)c(F)c3)nn1)[C@H]2O)c1cccc(Cl)c1 (single isomer, unassigned) [Compound A167], the “% Inhibitory activity (at 20 μM)” value (Table 2) is reported as “C (inhibition rate was 25%˜ to 50%˜ (exclusive of 50%))”.
In the case of CC(C(=O)N[C@@H]1CCO[C@]12O[C@H](CO)[C@H](O)[C@H](n1cc(-c3cc(F)c(F)c(F)c3)nn1)[C@H]2O)c1cccc(Cl)c1 (single isomer, unassigned) [Compound A168], the “% Inhibitory activity (at 20 μM)” value (Table 2) is reported as “B (inhibition rate was 50%0 to 7500 (exclusive of 75%))”.
For CC1CO[C@@]2(C1)O[C@H](CO)[C@H](O)[C@H](n1cc(-c3cc(F)c(F)c(F)c3)nn1)[C@H]2OC(=O)c1ccccn1 (single isomer, unassigned) [Compound A235], the inhibition at 20 µM [2] was 50 to 75%.
For CC1CO[C@@]2(C1)O[C@H](CO)[C@H](O)[C@H](n1cc(-c3cc(F)c(F)c(F)c3)nn1)[C@H]2OCC(=O)O (single isomer, unassigned) [Compound A236], the inhibition at 20 µM [2] was 50 to 75%.
OC[C@H]1O[C@@]2(CCCO2)C(O)[C@@H](n2cc(-c3cc(F)c(F)c(F)c3)nn2)[C@H]1O (stereo in doubt) [Compound A41, (5S,7R,8R,9S,10R)-7-(hydroxymethyl)-9-(4-(3,4,5-trifluorophenyl)-1H-1,2,3-triazol-1-yl)-1,6-dioxaspiro[4.5]decane-8,10-diol] was tested, and the inhibition at 20 µM [3] was < 25%.
In the case of O=C(OC1[C@@H](n2cc(-c3cc(F)c(F)c(F)c3)nn2)[C@@H](O)[C@@H](CO)O[C@@]12CCCO2)c1cccnc1 (stereo in doubt) [Compound A75, (5S,7R,8R,9S,10S)-8-hydroxy-7-(hydroxymethyl)-9-(4-(3,4,5-trifluorophenyl)-1H-1,2,3-triazol-1-yl)-1,6-dioxaspiro[4.5]decan-10-yl nicotinate], the inhibition at 20 µM [3] is reported as 25 to 50% and the inhibition at 20 µM (read-out: % Inhibitory activity (at 20 μM), Table 3, found values) is reported as 32%.
COc1ccc2c(c1)CC[C@]1(O2)O[C@H](CO)[C@H](O)[C@H](OCc2cc3c(F)c(F)ccc3oc2=O)[C@H]1O [Compound A08, 3-((((2R,3′R,4'S,5'S,6′R)-3′,5′-dihydroxy-6′-(hydroxymethyl)-6-methoxy-3′,4′,5′,6′-tetrahydrospiro[chromane-2,2′-pyran]-4′-yl)oxy)methyl)-5,6-difluoro-2H-chromen-2-one] was tested, and the inhibition at 20 µM [1] was < 25% and the inhibition at 20 µM (Table 3, found values, read-out: % Inhibitory activity (at 20 μM)) was 21.8%.
For O=c1oc2ccc(F)c(F)c2cc1CO[C@H]1[C@@H](O)[C@@H](CO)O[C@@]2(CCCO2)[C@@H]1O [Compound A09, 3-((((5S,7R,8S,9S,10R)-8,10-dihydroxy-7-(hydroxymethyl)-1,6-dioxaspiro[4.5]decan-9-yl)oxy)methyl)-5,6-difluoro-2H-chromen-2-one], the inhibition at 20 µM [1] was < 25%.
In the case of OC[C@H]1O[C@@]2(CCCO2)[C@H](O)[C@@H](n2cc(-c3cc(F)c(F)c(F)c3)nn2)[C@H]1O [Compound A12, (5S,7R,8R,9S,10R)-7-(hydroxymethyl)-9-(4-(3,4,5-trifluorophenyl)-1H-1,2,3-triazol-1-yl)-1,6-dioxaspiro[4.5]decane-8,10-diol], the inhibition at 20 µM [1] is reported as 25 to 50%.
OC[C@H]1O[C@@]2(CCCO2)[C@H](OCc2ccccc2)[C@@H](n2cc(-c3cc(F)c(F)c(F)c3)nn2)[C@H]1O [Compound A13, (5S,7R,8R,9S,10R)-10-(benzyloxy)-7-(hydroxymethyl)-9-(4-(3,4,5-trifluorophenyl)-1H-1,2,3-triazol-1-yl)-1,6-dioxaspiro[4.5]decan-8-ol] showed an inhibition at 20 µM [1] of 25 to 50%.
Work on OC[C@H]1O[C@@]2(CCCO2)[C@H](OCc2cccnc2)[C@@H](n2cc(-c3cc(F)c(F)c(F)c3)nn2)[C@H]1O [Compound A16, (5S,7R,8R,9S,10R)-7-(hydroxymethyl)-10-(pyridin-3-ylmethoxy)-9-(4-(3,4,5-trifluorophenyl)-1H-1,2,3-triazol-1-yl)-1,6-dioxaspiro[4.5]decan-8-ol acetate] yielded an inhibition at 20 µM [1] of 25 to 50%.
In the case of OC[C@H]1O[C@@]2(CCCO2)[C@H](OCc2ccccn2)[C@@H](n2cc(-c3cc(F)c(F)c(F)c3)nn2)[C@H]1O [Compound A17, (5S,7R,8R,9S,10R)-7-(hydroxymethyl)-10-(pyridin-2-ylmethoxy)-9-(4-(3,4,5-trifluorophenyl)-1H-1,2,3-triazol-1-yl)-1,6-dioxaspiro[4.5]decan-8-ol], the inhibition at 20 µM [1] is reported as 25 to 50%.
With OC[C@H]1O[C@@]2(CCCO2)[C@H](OCc2ccncc2)[C@@H](n2cc(-c3cc(F)c(F)c(F)c3)nn2)[C@H]1O [Compound A18, (5S,7R,8R,9S,10R)-7-(hydroxymethyl)-10-(pyridin-4-ylmethoxy)-9-(4-(3,4,5-trifluorophenyl)-1H-1,2,3-triazol-1-yl)-1,6-dioxaspiro[4.5]decan-8-ol acetate] the inhibition at 20 µM [1] was 25 to 50%.
In the case of OC[C@H]1O[C@@]2(CCCO2)[C@H](OCc2ccc(C(F)(F)F)o2)[C@@H](n2cc(-c3cc(F)c(F)c(F)c3)nn2)[C@H]1O [Compound A19, (5S,7R,8R,9S,10R)-7-(hydroxymethyl)-10-((5-(trifluoromethyl)furan-2-yl)methoxy)-9-(4-(3,4,5-trifluorophenyl)-1H-1,2,3-triazol-1-yl)-1,6-dioxaspiro[4.5]decan-8-ol], the inhibition at 20 µM [1] is reported as 25 to 50%.
O=C(CO[C@@H]1[C@@H](n2cc(-c3cc(F)c(F)c(F)c3)nn2)[C@@H](O)[C@@H](CO)O[C@@]12CCCO2)c1ccccc1 [Compound A20, 2-(((5S,7R,8R,9S,10R)-8-hydroxy-7-(hydroxymethyl)-9-(4-(3,4,5-trifluorophenyl)-1H-1,2,3-triazol-1-yl)-1,6-dioxaspiro[4.5]decan-10-yl)oxy)-1-phenylethanone] was tested, and the inhibition at 20 µM [1] was 25 to 50%.
With O=C(O)CO[C@@H]1[C@@H](n2cc(-c3cc(F)c(F)c(F)c3)nn2)[C@@H](O)[C@@H](CO)O[C@@]12CCCO2 [Compound A21, 2-(((5S,7R,8R,9S,10R)-8-hydroxy-7-(hydroxymethyl)-9-(4-(3,4,5-trifluorophenyl)-1H-1,2,3-triazol-1-yl)-1,6-dioxaspiro[4.5]decan-10-yl)oxy)acetic acid] the inhibition at 20 µM [1] was 50 to 75%.
